Measured values reported in patent US5166200A, “Treatment of endometriosis” (Snow Brand Milk Products Company, Limited, priority 1990, dated 1992).
“Also recorded” adds a separate entry of the source. Where two headings read alike, the source gives them in different places.

How the values were obtained:
[1] = tested on: estradiol (Ez); assay: Test (1) serum estradiol (Ez) reduction, subcutaneous administration, PMSG-treated rats, radioimmunoassay; format: in vivo, SD strain female rats; conditions: for Ez-reducing effect: compared with the control group, in both cases of subcutaneous administration (50 mg/kg) and oral administration (100 mg/kg, Test (2)); for Ez concentration in serum (average): subcutaneous, 50 mg/kg, 3 hours after administration, PMSG-treated rats, 5 per group, control (HPC) 0.572
Method: (§1) In this Test Example, effects of administration of 6-OA and 6-enol ester compounds thereof on estradiol (Ez) reduction were examined.
20 SD strain female rats of 8-week old were used as test animals. They were divided into four groups each consisting of 5 rats. To all the rats was subcutaneously injected pregnant mare serum gonatropin (PMSG) in an amount of 100 IU/body once every other day (6 times in total). In the beforenoon of the next day of the final (6th) administration of PMSG, 0.5 ml of a solvent, 50 mg/kg of 6-OA, 50 mg/kg of 6-OAp and 50 mg/kg of 6-OAb were subcutaneously administered to group I (control group), group II, group III and group IV, respectively.
After 3 hours from the administration, the rats were subjected to abdomen opening under etherization and then to exsanguination from the main vein. The blood collected from each rat was subjected to serum separation, and the Ez in the serum was determined by radioimmunoassay.
A physiological saline solution containing 0.3% of hydroxy propyl cellulose (HPC) was used as the solvent. 6-OA, 6-OAp and 6-OAb were each suspended in the solvent in such a concentration that the administration amount of the resulting suspension per rat became 0.5 ml.

[2] = animal toxicity tests (LD50)
[3] = tested on: aromatase (a steroidogenesis enzyme); conditions: known; Japanese Patent Application Laid-Open Nos. 192794/1988, 131193/1989; cited from earlier work
[4] = tested on: estradiol (Ez); assay: Test (2) serum estradiol (Ez) reduction, oral administration, PMSG-treated rats, radioimmunoassay; format: in vivo, SD strain female rats; conditions: 100 mg/kg, 6 hours after administration, 5 per group, control (HPC) 0.522
Method: as §1
The type, age, number and grouping of test animals were the same as in Test (1).
All of the rats were subcutaneously injected with PMSG, in the same manner as in Test (1), in an amount of 100 IU/body once every other day (6 times in total).
Before noon of the next day of the final (6th) administration of PMSG, 0.5 ml of a solvent, 100 mg/kg of 6-OA, 100 mg/kg of 6-OAp and 100 mg/kg of 6-OAb were orally administered to group I (control group), group II, group III and group IV, respectively.
Aftr 6 hours from the administration, the rats were subjected to exsanguination. The blood collected from each rat was subjected to serum separation, and the Ez in the serum was determined by radioimmunoassay.
The solvent used was the same as in Test (1). 6-OA, 6-OAp and 6-OAb were each suspended in the solvent in such a concentration that the administration amount of the resulting suspension per rat became 0.5 ml.

[5] = tested on: experimental endometriosis; assay: effect on model rats of endometriosis (cysts in endometrium autoplanted under renal capsule); format: in vivo, SD strain female rats; conditions: 100 mg/kg/day
Text: In this Test example, effect of administration of 6-OAp on model rats of endometriosis was examined.
SD strain female rats of 7-week old weighing 170-210 g were used as test animals. In these rats, an endometrial segment (about 5 mm×5 mm) was removed from the left uterine horn and autoplanted under the left renal capsule, and formation of cysts in the transplanted endometrium was examined. Those rats which had developed cysts of 0.5-2.0 mm in height in the transplanted endometrium, were used for test.
The rats were divided into three groups. To group I (control group) was orally administered a physiological saline solution containing 0.3% of hydroxy propyl cellulose (HPC) daily in an amount of 0.5 ml/day. To group II was orally administered 6-OAp daily in an amount of 100 mg/kg/day. In this case, 6-OAp was suspended in a physiological saline solution containing 0.3% of HPC in such a concentration that the administration amount of the resulting suspension per rat became 0.5 ml. Group III (positive control) was subjected to ovary removal.
Each rat was subjected to abdomen opening after 3 weeks from the start of administration or after the ovary removal and examined for the presence of cysts.
Chi-square test was used for the statistical analysis of the test data obtained.

[6] = cited from earlier work

Row | SMILES | Ez-reducing effect [1] | Ez concentration in serum (average) [1] | Ez concentration in serum (average) [4] | also measured
1 | C[C@]12CCC(=O)C=C1C(=O)C[C@@H]1[C@@H]2CC[C@]2(C)C(=O)CC[C@@]12O [6-OA, 14α-Hydroxy-4-androstene-3,6,17-trione] | strong Ez-reducing effect | 0.262 ng/mL | 0.291 ng/mL | toxicity ([2]; animal tests): very low toxicity; LD50 ([2]; in vivo): > 2000 mg/kg; aromatase-inhibitory activity [3]: strong aromatase-inhibitory activity
2 | C[C@]12CCC(=O)C=C1C(OC(=O)c1ccccc1)=C[C@@H]1[C@@H]2CC[C@]2(C)C(=O)CC[C@@]12O [6-OAb] | strong Ez-reducing effect | 0.390 ng/mL | 0.422 ng/mL | –
3 | CCC(=O)OC1=C[C@@H]2[C@H](CC[C@]3(C)C(=O)CC[C@@]23O)[C@@]2(C)CCC(=O)C=C12 [6-OAp, 14α-Hydroxy-androsta-4,6-diene-3,17-dione-6-propionate] | strong Ez-reducing effect; also recorded: stronger Ez-reducing effect than the 6-OA group and the 6-OAb group | 0.230 ng/mL | 0.226 ng/mL | Disappearance (of cysts) ([5]; oral, 3 weeks, control 9%, ovary-removed 100, significant at 5% level relative to control group (Chi-square)): 41%; Cysts absent ([5]; oral, 3 weeks, total 22 rats, control 2 of 22, significant at 5% level relative to control (Chi-square)): 9 rats; Cysts present ([5]; oral, 3 weeks, total 22 rats, control 20 of 22): 13 rats; effect on experimental endometriosis of rats ([5]; orally administered daily for 3 weeks): effective
4 | CCNC(=O)[C@@H]1CCCN1C(=O)[C@H](CCCNC(=N)N)NC(=O)[C@H](CC(C)C)NC(=O)[C@@H](COC(C)(C)C)NC(=O)[C@H](Cc1ccc(O)cc1)NC(=O)[C@H](CO)NC(=O)[C@H](Cc1c[nH]c2ccccc12)NC(=O)[C@H](Cc1cnc[nH]1)NC(=O)[C@@H]1CCC(=O)N1 [buserelin] | – | – | – | side effects ([6]; treatment of endometriosis, prior art): hyposexuality, hot flushes and the like
5 | C#C[C@]1(O)CC[C@H]2[C@@H]3CCC4=Cc5oncc5C[C@]4(C)[C@H]3CC[C@@]21C [danazol] | – | – | – | side effects ([6]; in vivo): dyshepatia, masculinization and the like
